From US20040152640A1, “Preparation for the prevention and or treatment of altered bone metabolism” (priority 2001, published 2004)

System: mouse bone marrow cells
Assay: Alkaline phosphatase (ALP) activity assay in mouse bone marrow cells (marker for osteoblast differentiation)
Type: cell-based
Design: dose or concentration left out as unconfirmed
Settings: mice bone marrow cells, 3 weeks exposure; with ascorbic acid and β-glycerolphosphate; stimulation more pronounced than genistein
Description: Bone marrow cells were isolated from six months old female NMRI mice. After washing, the cells were diluted in phenol red free α-MEM (1% p/s, 15% charcoal treated FCS) and seeded in 24-well plates (1.25*10^6 cells/well). After 24 hours incubation (37° C., 5% CO2) the cells were exposed to the active components (1*10^−5, 1*10^−6 and 1*10^−7 M) together with ascorbic acid (50 μg/ml) and β-glycerolphosphate (1 mM). Exposure media were refreshed every 3 days. After 2 and 3 weeks of incubation, cells were washed with PBS and stored at −20° C. After lysis DNA amounts and alkaline phosphatase activities were determined as described below. The DNA amounts are measured to determine to the number of cells and the alkaline phosphatase activity is used as a marker for osteoblast differentiation. 300 μl lysis buffer (1×SSC/0.01% SDS) was added to the frozen cells. After 1 hour incubation (37° C.) the plates were sonified for 10 minutes and cell suspensions were used for ALP activity measurements. 25 μl cell lysate was transferred in duplicate to 96-well plates. 25 μl of 1*SSC/0.01% SDS served as a negative control. […] ALP activity was measured at a wavelength of 405 nm at room temperature during 10 minutes at 30-second intervals. […] Activity is expressed as nmol p-nitrophenol production/minute/well. (Mean±sem, 2 independent experiments measured in duplicate)

Row | Compound | alkaline phosphatase signal in differentiated osteoblasts
1 | O=c1cc(-c2ccc(O)cc2)oc2cc(O)cc(O)c12 [apigenin] | increased alkaline phosphatase signal
2 | O=c1cc(-c2ccc(O)c(O)c2)oc2cc(O)cc(O)c12 [luteolin] | increased alkaline phosphatase signal
